In patent US10774390B2, “Methods and compositions for modulating PrfA mediated virulence gene activation in Listeria spp” (The Regents of the University of California, priority 2015, dated 2020):

Tests used:
[1] = tested on: PrfA; assay: PrfA activation in L. monocytogenes strains expressing TagRFP from the actA promoter, grown in media with or without reducing agents; type: cell-based, Listeria monocytogenes; conditions: for activation of PrfA in vitro: L. monocytogenes grown in chemically defined media, excess of exogenously added reducing agent; for Optimal concentration for prfA activation: reducing agent added to chemically defined media (Table 1); for induction of ActA (FIG. 1): chemically defined media, fluorescent reporter driven by actA promoter
Description: Experiments were conducted to identify any additional factors required for PrfA activation.
Three different strains were employed: WT 10403S (Lauer et al., J. Bacteriol. (2002) 184:4177-4186; ΔprfA which was an in frame deletion in prfA made by allelic exchange; and PrfA* which has a G145S mutation. The strains were engineered to express TagRFP from the actA promoter (e.g., as reported in Waite et al., PLoS Pathog. (2011)7:e1001326. A chemically defined media detailed in Table 1 was prepared.
Next, a number of reducing agents listed in Table 2 were added to the media.
The three strains were grown in the chemically defined media with or without the addition of the noted reducing agents.

[2] = tested on: Listeria monocytogenes; assay: Virulence of strains grown with or without reducing agent: bacterial burdens in organs of intravenously infected mice; type: in vivo, CD-1 mice
Description: FIG. 2. In this experiment bacteria were grown in rich media (BHI) or Listeria synthetic media (LSM) with or without reducing agent (TCEP) and injected into mice IV. The data are CFUs at […] in liver and spleens. WT bacteria and a PrfA* strain that has constitutively active PrfA were used.
Prior to infection, bacterial strains were grown to stationary phase overnight in Listeria Synthetic Media (LSM) at 37° C., then diluted into either BHI or LSM, with or without reducing agent (2 mM TCEP) and grown at 37° C. with shaking until the OD600 was approximately 0.5. Cultures were re-suspended in 1× phosphate-buffered saline (PBS) and used to intravenously infect female CD-1 mice between 6 and 8 weeks of age with a final inoculum of 10^5 bacteria. At 48 hrs post-infection, mice were sacrificed and organs collected. Bacterial burdens were enumerated by plating organ homogenates on LB plates and incubating overnight.
WT bacteria and a PrfA* strain that has constitutively active PrfA were used.

SMILES	activation of PrfA in vitro [1]	Optimal concentration for prfA activation [1] [mM]	induction of ActA (FIG. 1) [1]	PrfA activation ([1]; exogenous glutathione, standard complex broth culture)	bacteria in the organs (CFU, liver and spleen), fold more ([2]; bacteria grown in LSM plus 2 mM TCEP, IV, 10^5 bacteria, 48 hrs post-infection)	activation of PrfA-dependent expression, measured by virulence ([2]; defined medium and TCEP, compared with PrfA* strain)
O[C@H](CS)[C@H](O)CS (racemic) [dithiothreitol (DTT), dithiothreitol]	recapitulated	2				
OCCS [2-mercaptoethanol (BME), 2-mercaptoethanol]	recapitulated	2				
N[C@@H](CCC(=O)N[C@@H](CS)C(=O)NCC(=O)O)C(=O)O [Glutathione (reduced), Glutathione]	sufficient to stimulate activation of PrfA	10	induction of ActA	insufficient to stimulate PrfA activation		
N[C@@H](CS)C(=O)O [L-Cysteine]		10	induction of ActA			
O=C(O)CCP(CCC(=O)O)CCC(=O)O [tris(2-carboxyethyl)phosphine (TCEP), tris(2-carboxyethyl)phosphine]	recapitulated	2	induction of ActA		around 50 fold	equivalent to that of a PrfA-constituitive mutant
